# Source: patent US20050113450A1, “Antibacterial agents” (priority 2002, published 2005)
# System: SA 9218
# Assay: MIC by standard agar dilution method
# Format: cell-based
# Conditions: Mueller Hinton agar, 10^4 to 10^5 cells per spot, incubated overnight at 35° C., lowest concentration that inhibits visible growth
# Outline: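 Agar dilution: two-fold compound dilutions mixed into molten Mueller Hinton agar, spots of ~10^4–10^5 cells from 0.5 McFarland suspension diluted 1:20 in TSB. Incubated overnight at 35 °C; MIC is lowest concentration inhibiting visible growth.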
Compound,SA 9218 MIC [µg/mL],MIC [µg/mL]
CC(=O)c1cccc(C(=O)Nc2ccc(Br)cc2C(=O)O)c1 [PHA-522145],,32
"N#Cc1ccc(NC(=O)c2cccc(S(=O)(=O)N3CCc4cc(Cl)ccc43)c2)c(C(=O)O)c1 [PHA-524523, 2-({3-[(5-Chloro-2,3-dihydro-1H-indol-1-yl)sulfonyl]benzoyl}amino)-5-cyanobenzoic acid]",,0.125
N#Cc1cc(C(=O)Nc2ccc(Br)cc2C(=O)O)cc(S(=O)(=O)N2CCc3ccccc32)c1 [PHA-530687],,8
COc1ccc2c(ccn2S(=O)(=O)c2cccc(C(=O)Nc3ccc(C#N)cc3C(=O)O)c2)c1 [PHA-543139],,0.125
N#Cc1ccc(NC(=O)c2cccc(S(=O)(=O)N3CCCC3)c2)c(C(=O)O)c1 [PHA-543140],,1
N#Cc1ccc(NC(=O)c2cccc(SC3CCCC3)c2)c(C(=O)O)c1 [PHA-546926],,0.5
Cc1ccc(NC(=O)c2cccc(S(=O)(=O)N3CCc4cc(Cl)ccc43)c2)c(C(=O)O)c1 [PHA-552831],,1
Cc1cc(C(=O)Nc2ccc(C#N)cc2C(=O)O)cc(S(=O)(=O)N2CCc3ccccc32)c1 [PHA-556214],,1
O=C(Nc1ccc(-c2cccs2)cc1C(=O)O)c1cccc(S(=O)(=O)N2CCc3cc(Cl)ccc32)c1 [PHA-556657],,2
Cn1cccc1-c1ccc(NC(=O)c2cccc(S(=O)(=O)N3CCc4cc(Cl)ccc43)c2)c(C(=O)O)c1 [PHA-556658],,8
O=C(Nc1ccc(-c2cnccn2)cc1C(=O)O)c1cccc(S(=O)(=O)N2CCc3cc(Cl)ccc32)c1 [PHA-556661],,8
O=C(Nc1ccc(-c2ccco2)cc1C(=O)O)c1cccc(S(=O)(=O)N2CCc3cc(Cl)ccc32)c1 [PHA-556663],,8
O=C(Nc1ccc(-c2ccccc2)cc1C(=O)O)c1cccc(S(=O)(=O)N2CCc3cc(Cl)ccc32)c1 [PHA-557035],,4
N#Cc1ccc(NC(=O)c2ccc3c(c2)S(=O)(=O)N(c2ccc(Cl)cc2)CC3)c(C(=O)O)c1 [PHA-562745],,0.25
O=C(Nc1ccc(-c2ccc(Cl)cc2)cc1C(=O)O)c1cccc(S(=O)(=O)N2CCc3cc(Cl)ccc32)c1 [PHA-563274],,2
O=C(Nc1ccc(-c2cccc([N+](=O)[O-])c2)cc1C(=O)O)c1cccc(S(=O)(=O)N2CCc3cc(Cl)ccc32)c1 [PHA-563275],,2
N#Cc1ccc(-c2ccc(NC(=O)c3cccc(S(=O)(=O)N4CCc5cc(Cl)ccc54)c3)c(C(=O)O)c2)cc1 [PHA-563276],,2
Cc1csc(-c2ccc(NC(=O)c3cccc(S(=O)(=O)N4CCc5cc(Cl)ccc54)c3)c(C(=O)O)c2)c1 [PHA-563277],,2
O=C(Nc1ccc(-c2ccc(F)cc2)cc1C(=O)O)c1cccc(S(=O)(=O)N2CCc3cc(Cl)ccc32)c1 [PHA-563278],,2

Compound,SA 9218 MIC [µg/mL],MIC [µg/mL]
O=C(Nc1ccc(-c2ccccc2C(F)(F)F)cc1C(=O)O)c1cccc(S(=O)(=O)N2CCc3cc(Cl)ccc32)c1 [PHA-563279],,0.5
O=C(Nc1ccc(-c2cc(C(F)(F)F)cc(C(F)(F)F)c2)cc1C(=O)O)c1cccc(S(=O)(=O)N2CCc3cc(Cl)ccc32)c1 [PHA-563280],,1
O=C(Nc1ccc(-c2ccc(F)cc2F)cc1C(=O)O)c1cccc(S(=O)(=O)N2CCc3cc(Cl)ccc32)c1 [PHA-563281],,1
Cc1ccc(-c2ccc(NC(=O)c3cccc(S(=O)(=O)N4CCc5cc(Cl)ccc54)c3)c(C(=O)O)c2)s1 [PHA-563282],,1
CC(C)(C)c1ccc(-c2ccc(NC(=O)c3cccc(S(=O)(=O)N4CCc5cc(Cl)ccc54)c3)c(C(=O)O)c2)cc1 [PHA-563283],,16
O=C(Nc1ccc(-c2cccc(C(F)(F)F)c2)cc1C(=O)O)c1cccc(S(=O)(=O)N2CCc3cc(Cl)ccc32)c1 [PHA-563284],,2
O=C(Nc1ccc(-c2ccc(C(F)(F)F)cc2)cc1C(=O)O)c1cccc(S(=O)(=O)N2CCc3cc(Cl)ccc32)c1 [PHA-563285],,2
O=C(Nc1ccc(-c2ccccn2)cc1C(=O)O)c1cccc(S(=O)(=O)N2CCc3cc(Cl)ccc32)c1 [PHA-563324],,> 128
N#Cc1ccc(NC(=O)c2cccc(S(=O)(=O)N3CCCCC3)c2)c(C(=O)O)c1 [PHA-564750],,0.25
O=C(O)c1cc([N+](=O)[O-])ccc1/C=C/c1cccc(S(=O)(=O)N2CCc3cc(Cl)ccc32)c1 [PHA-568196],,1
O=C(O)c1ccc([N+](=O)[O-])cc1/C=C\c1cccc(S(=O)(=O)N2CCc3cc(Cl)ccc32)c1 [PHA-568197],,16
Cc1ccccc1-c1ccc(NC(=O)c2cccc(S(=O)(=O)N3CCc4cc(Cl)ccc43)c2)c(C(=O)O)c1 [PHA-568205],,2
O=C(Nc1ccc(-c2ccc(Cl)s2)cc1C(=O)O)c1cccc(S(=O)(=O)N2CCc3cc(Cl)ccc32)c1 [PHA-568206],,2
O=C(Nc1ccc(Br)cc1C(=O)O)c1ccc(S(=O)(=O)N2CCCC2)cc1 [PHA-568376],,16
O=C(Nc1ccc(Br)cc1C(=O)O)c1cccc(S(=O)(=O)N2CCCC2)c1 [PHA-568378],,2
N#Cc1ccc(NC(=O)c2cccc(S(=O)(=O)N3CCOCC3)c2)c(C(=O)O)c1 [PHA-568420],0.5,
N#Cc1ccc(NC(=O)c2cc(CCO)cc(S(=O)(=O)N3CCc4ccccc43)c2)c(C(=O)O)c1 [PHA-568425],,8
COc1ncc(-c2ccc(NC(=O)c3cccc(S(=O)(=O)N4CCc5cc(Cl)ccc54)c3)c(C(=O)O)c2)c(OC)n1 [PHA-568906],,8

# Results, then the molecule that gave them:
SA 9218 MIC [µg/mL],MIC [µg/mL],Compound
1,,O=C(Nc1ccc(Br)cc1C(=O)O)c1cccc(C(O)c2ccccc2)c1 (stereo not shown) [PHA-521534]
>128,,N#Cc1ccc(NC(=O)c2ccccc2)c(C(=O)O)c1 [PHA-521535]
,0.5,"CON=C(c1ccccc1)c1cccc(C(=O)Nc2ccc(Br)cc2C(=O)O)c1 [PHA-522146, 5-Bromo-2-({3-[(methoxyimino)(phenyl)methyl]benzoyl}amino)benzoic acid]"
,1,N#Cc1ccc(NC(=O)c2cccc(C(=O)c3ccccc3)c2)c(C(=O)O)c1 [PHA-524524]
0.25,,O=C(Nc1ccc(Br)cc1C(=O)O)c1cccc(C(=NO)c2ccccc2)c1 [PHA-524545]
,2,O=C(Nc1ccc(Br)cc1C(=O)O)c1cccc(C#Cc2ccccc2)c1 [PHA-526578]
,1,O=C(Nc1ccc(Br)cc1C(=O)O)c1cccc(Sc2ccccc2)c1 [PHA-526580]
32,,N#Cc1ccc(NC(=O)c2ccccc2)c(C(=O)O)c1 [PHA-530685]
,4,O=C(Nc1ccc(Br)cc1C(=O)O)c1cccc(CCc2ccccc2)c1 [PHA-530989]
,0.25,N#Cc1ccc(NC(=O)c2cccc(C(=NO)c3ccccc3)c2)c(C(=O)O)c1 [PHA-535548]
,0.25,CON=C(c1ccccc1)c1cccc(C(=O)Nc2ccc(C#N)cc2C(=O)O)c1 [PHA-535549]
,1,N#Cc1ccc(NC(=O)c2cccc(Oc3ccccc3)c2)c(C(=O)O)c1 [PHA-535553]
,0.125,N#Cc1ccc(NC(=O)c2cccc(S(=O)(=O)n3ccc4ccccc43)c2)c(C(=O)O)c1 [PHA-543141]
,0.125,N#Cc1ccc(NC(=O)c2cccc(S(=O)(=O)n3ccc4cc(Cl)ccc43)c2)c(C(=O)O)c1 [PHA-543681]
,0.125,CC(Sc1cccc(C(=O)Nc2ccc(C#N)cc2C(=O)O)c1)c1ccccc1 (stereo not shown) [PHA-547267]
,1,CC1(C)CN(S(=O)(=O)c2cccc(C(=O)Nc3ccc(C#N)cc3C(=O)O)c2)c2ccccc21 [PHA-555027]
,1,N#Cc1ccc(NC(=O)c2ccc(Oc3ccccc3)cc2)c(C(=O)O)c1 [PHA-561055]
,1,N#Cc1ccc(NC(=O)c2cccc(Oc3cccc(F)c3)c2)c(C(=O)O)c1 [PHA-562731]
,0.25,Cc1ccccc1Oc1cccc(C(=O)Nc2ccc(C#N)cc2C(=O)O)c1 [PHA-562733]
,4,C[C@H](c1ccccc1)N(C)S(=O)(=O)c1cccc(C(=O)Nc2ccc(C#N)cc2C(=O)O)c1 [PHA-562862]
,2,C[C@@H](c1ccccc1)N(C)S(=O)(=O)c1cccc(C(=O)Nc2ccc(C#N)cc2C(=O)O)c1 [PHA-562863]
,0.5,COc1ccc(Oc2cccc(C(=O)Nc3ccc(C#N)cc3C(=O)O)c2)cc1 [PHA-564215]
,1,N#Cc1ccc(NC(=O)c2cccc(Oc3cccc([N+](=O)[O-])c3)c2)c(C(=O)O)c1 [PHA-564218]
0.5,,O=C(Nc1ccc(Br)cc1C(=O)O)c1cccc(C(O)c2ccccc2)c1 (stereo not shown) [PHA-566947]
,1,O=C(Nc1ccc(Br)cc1C(=O)O)c1cccc(C(O)c2ccccc2)c1 (stereo not shown) [PHA-566948]
,0.125,COc1cccc2ccn(S(=O)(=O)c3cccc(C(=O)Nc4ccc(C#N)cc4C(=O)O)c3)c12 [PHA-568422]
,1,COc1ccc2ccn(S(=O)(=O)c3cccc(C(=O)Nc4ccc(C#N)cc4C(=O)O)c3)c2c1 [PHA-568424]
,0.125,N#Cc1ccc(NC(=O)c2cccc(S(=O)(=O)n3ccc4cc(F)ccc43)c2)c(C(=O)O)c1 [PHA-568461]
,8,N#Cc1ccc(NC(=O)c2ccc(C#Cc3ccccc3)cc2)c(C(=O)O)c1 [PHA-568907]
,0.5,Cl.N#Cc1ccc(NC(=O)c2cccc(SCc3ccncc3)c2)c(C(=O)O)c1 [PHA-569044A]
